Test results as given in patent US20180208605A1, “Substituted Aza Compounds as IRAK-4 Inhibitors” (AURIGENE DISCOVERY TECHNOLOGIES LIMITED, priority 2015, published 2018).
Structures can show the parent of a compound that is named as a salt.

Biological target: T1, recombinant IRAK-4 kinase (Homo sapiens, UniProt Q9NWZ3)
T1 construct: purchased Millipore, USA
T1 sequence (Q9NWZ3 1-460): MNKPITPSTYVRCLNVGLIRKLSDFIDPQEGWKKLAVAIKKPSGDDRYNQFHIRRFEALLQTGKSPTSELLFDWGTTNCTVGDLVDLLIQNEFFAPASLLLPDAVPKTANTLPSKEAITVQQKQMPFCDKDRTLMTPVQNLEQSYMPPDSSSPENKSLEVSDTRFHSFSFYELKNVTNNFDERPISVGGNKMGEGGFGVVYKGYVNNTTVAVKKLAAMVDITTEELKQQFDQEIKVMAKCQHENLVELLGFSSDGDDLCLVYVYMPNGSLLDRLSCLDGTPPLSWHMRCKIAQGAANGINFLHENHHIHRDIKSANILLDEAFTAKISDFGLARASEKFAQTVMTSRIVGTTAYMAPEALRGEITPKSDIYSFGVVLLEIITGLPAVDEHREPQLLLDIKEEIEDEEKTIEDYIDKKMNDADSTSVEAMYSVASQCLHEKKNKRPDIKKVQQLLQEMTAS
Test: IRAK-4 Biochemical Assay (TR-FRET, percent inhibition)
Details: TR-FRET, 20 μM ATP, 100 nM Biotin Histone H3; for inhibition at 0.1 µM: read-out: % inhibition of IRAK-4 @0.1 μM, compound at 0.1 μM; for inhibition at 1 µM: read-out: % inhibition of IRAK-4 @ 1 μM, compound at 1 μM; for % inhibition of IRAK-4 @0.1 μM: compound at 0.1 μM; for % inhibition of IRAK-4 @ 1 μM: compound at 1 μM
Method: Compounds were tested for their potential to inhibit IRAK-4 enzyme in a TR-FRET assay using recombinant IRAK-4 kinase from Millipore, USA. The assay buffer was 50 mM Tris-HCl pH 7.5, 20 mM MgCl2, 1 mM EGTA, 2 mM DTT, 3 mM MnCl2 and 0.01% Tween 20.5 ng of IRAK-4 kinase was used for the assay. After pre-incubation of enzyme with test compound for 30 minutes at room temperature, a substrate mixture containing 100 nM Biotin Histone H3 (Millipore, USA) and 20 μM ATP (Sigma, USA) was added and the reaction was incubated for 30 min. Post incubation, the reaction was stopped by the addition of stop mix containing 40 mM EDTA, 1 nM of Europium-Anti-Phospho-Histone H3 (Ser10) antibody (Perkin Elmer, USA) and 20 nM SureLight Allophycocyanin-Streptavidin (Perkin Elmer, USA). The fluorescence emission at 615 nm and 665 nm were measured at an excitation of 340 nm and the percent inhibition was estimated from the ratio of the fluorescence intensities [(F665/F615)×10000].

Row | Structure (SMILES) | inhibition at 0.1 µM | inhibition at 1 µM | % inhibition of IRAK-4 @0.1 μM | % inhibition of IRAK-4 @ 1 μM
1 | NCC(=O)O[C@H]1CCN(c2cncc(C(=O)Nc3cc4sc(N5CCOCC5)nc4nc3N3CCCCC3)n2)C1 [Example 65, (S)-1-(6-((2-morpholino-5-(piperidin-1-yl)thiazolo[4,5-b]pyridin-6-yl)carbamoyl)pyrazin-2-yl)pyrrolidin-3-yl glycinate] | 92% | 97% | – | –
2 | NC1CCN(c2ccn3ncc(C(=O)Nc4cc5sc(N6CCOCC6)nc5nc4C4CC4)c3n2)CC1 [Example 99, 5-(4-aminopiperidin-1-yl)-N-(5-cyclopropyl-2-morpholinothiazolo[4,5-b]pyridin-6-yl)pyrazolo[1,5-a]pyrimidine-3-carboxamide 2,2,2-trifluoroacetate] | 89% | 96% | – | –
3 | COC1CCN(c2cccc(C(=O)Nc3cc4sc(N5CCOCC5)nc4nc3N3CCCCC3)n2)CC1 [Example 31, 6-(4-methoxypiperidin-1-yl)-N-(2-morpholino-5-(piperidin-1-yl)thiazolo[4,5-b]pyridin-6-yl)picolinamide] | 90% | 98% | – | –
4 | O=C(Nc1cc2sc(N3CCOCC3)nc2nc1N1CCCCC1)c1cnn2cccnc12 [Example 19, N-(2-morpholino-5-(piperidin-1-yl)thiazolo[4,5-b]pyridin-6-yl)pyrazolo[1,5-a]pyrimidine-3-carboxamide] | – | – | 98% | 99%
5 | Nc1ccc(-c2cccc(C(=O)Nc3cc4sc(N5CCOCC5)nc4nc3C3CC3)n2)cn1 [Example 51, 6′-amino-N-(5-cyclopropyl-2-morpholinothiazolo[4,5-b]pyridin-6-yl)-[2,3′-bipyridine]-6-carboxamide] | 98% | – | – | –
6 | O=C(Nc1cc2sc(N3CCOCC3)nc2nc1N1CCCCC1)c1cccc(N2CCC(C(=O)O)CC2)n1 [Example 80, 1-(6-((2-morpholino-5-(piperidin-1-yl)thiazolo[4,5-b]pyridin-6-yl)carbamoyl)pyridin-2-yl)piperidine-4-carboxylic acid] | – | – | 96% | 99%
7 | NC1CCCN(c2ccn3ncc(C(=O)Nc4cc5sc(N6CCOCC6)nc5nc4N4CC[C@@H](O)C4)c3n2)C1 (stereo partly drawn) [Example 102, 5-(3-aminopiperidin-1-yl)-N-(5-((R)-3-hydroxypyrrolidin-1-yl)-2-morpholinothiazolo[4,5-b]pyridin-6-yl)pyrazolo[1,5-a]pyrimidine-3-carboxamide hydrochloride] | 21% | 56% | – | –
8 | O=C(Nc1cc2sc(N3CCOCC3)nc2nc1N1CC[C@@H](O)C1)c1cnn2cccnc12 [Example 103, (R)-N-(5-(3-hydroxypyrrolidin-1-yl)-2-morpholinothiazolo[4,5-b]pyridin-6-yl)pyrazolo[1,5-a]pyrimidine-3-carboxamide hydrochloride] | 92% | 97% | – | –
9 | O=C(Nc1cc2sc(N3CCOCC3)nc2nc1N1CCOCC1)c1cccc(N2CCC(O)C2)n1 (centres unmarked) [Example 76, N-(2,5-dimorpholinothiazolo[4,5-b]pyridin-6-yl)-6-(3-hydroxypyrrolidin-1-yl)picolinamide] | 92% | 97% | – | –
10 | O=C(Nc1cc2sc(N3CCOCC3)nc2nc1N1CCCCC1)c1cccc(N2C3CCC2CC(O)C3)n1 (centres unmarked) [Example 81, 6-(3-hydroxy-8-azabicyclo[3.2.1]octan-8-yl)-N-(2-morpholino-5-(piperidin-1-yl)thiazolo[4,5-b]pyridin-6-yl)picolinamide] | 88% | 94% | – | –
11 | Cc1cc(-c2cccc(C(=O)Nc3cc4sc(N5CCOCC5)nc4nc3N3CCC[C@@H](O)C3)n2)ccn1 [Example 41, (R)-N-(5-(3-hydroxypiperidin-1-yl)-2-morpholinothiazolo[4,5-b]pyridin-6-yl)-2′-methyl-[2,4′-bipyridine]-6-carboxamide] | 92% | 98% | – | –
12 | O=C(Nc1cc2sc(N3CCOCC3)nc2nc1N1CCCCC1)c1cccc(N2CCC(C(=O)O)CC2)n1 [Example 71, sodium 1-(6-((2-morpholino-5-(piperidin-1-yl)thiazolo[4,5-b]pyridin-6-yl)carbamoyl)pyridin-2-yl)piperidine-4-carboxylate] | 94% | 96% | – | –
13 | O=C(Nc1cc2sc(N3CCOCC3)nc2nc1N1CCCCC1)c1cccc(N2CCCC(CO)C2)n1 (centres unmarked) [Example 78, 6-(3-(hydroxymethyl)piperidin-1-yl)-N-(2-morpholino-5-(piperidin-1-yl)thiazolo[4,5-b]pyridin-6-yl)picolinamide] | 99% | 96% | – | –
14 | O=C(Nc1cc2sc(N3CCOCC3)nc2nc1C1CC1)c1cncc(N2CCC(O)C2)n1 (centres unmarked) [Example 50, N-(5-cyclopropyl-2-morpholinothiazolo[4,5-b]pyridin-6-yl)-6-(3-hydroxypyrrolidin-1-yl)pyrazine-2-carboxamide] | 67% | 95% | – | –
15 | O=C(Nc1cc2sc(N3CCOCC3)nc2nc1N1CCCCC1)c1cccc(NC2CCC(CO)CC2)n1 (centres unmarked) [Example 46, 6-((4-(hydroxymethyl)cyclohexyl)amino)-N-(2-morpholino-5-(piperidin-1-yl)thiazolo[4,5-b]pyridin-6-yl)picolinamide] | 75% | 94% | – | –
16 | O=C(Nc1cc2sc(N3CCOCC3)nc2nc1C1CC1)c1cnn2cccnc12 [Example 105, N-(5-cyclopropyl-2-morpholinothiazolo[4,5-b]pyridin-6-yl)pyrazolo[1,5-a]pyrimidine-3-carboxamide] | 96% | 97% | – | –
17 | Cc1cc(-c2c[nH]c(C(=O)Nc3cc4sc(N5CCOCC5)nc4nc3N3CC[C@@H](O)C3)c2)ccn1 [Example 73, (R)-N-(5-(3-hydroxypyrrolidin-1-yl)-2-morpholinothiazolo[4,5-b]pyridin-6-yl)-4-(2-methylpyridin-4-yl)-1H-pyrrole-2-carboxamide] | 69% | 97% | – | –
18 | O=C(Nc1cc2sc(N3CCOCC3)nc2nc1N1CCCCC1)c1cncc(N2CC[C@H](O)C2)n1 [Example 63, (S)-6-(3-hydroxypyrrolidin-1-yl)-N-(2-morpholino-5-(piperidin-1-yl)thiazolo[4,5-b]pyridin-6-yl)pyrazine-2-carboxamide] | 95% | 95% | – | –
19 | O=C(Nc1cc2sc(N3CCOCC3)nc2nc1N1CCCCC1)c1cccc(N2CC[C@@H](O)C2)n1 [Example 34, (R)-6-(3-hydroxypyrrolidin-1-yl)-N-(2-morpholino-5-(piperidin-1-yl)thiazolo[4,5-b]pyridin-6-yl)picolinamide] | 97% | 99% | – | –
20 | Nc1ccc(-c2cccc(C(=O)Nc3cc4sc(N5CCOCC5)nc4nc3N3CCCCC3)n2)cn1 [Example 75, 6′-amino-N-(2-morpholino-5-(piperidin-1-yl)thiazolo[4,5-b]pyridin-6-yl)-[2,3′-bipyridine]-6-carboxamide] | 98% | 78% | – | –
21 | O=C(Nc1cc2oc(N3CCOCC3)nc2nc1N1CC[C@@H](O)C1)c1cnn2cccnc12 [Example 25, (R)—N-(5-(3-hydroxypyrrolidin-1-yl)-2-morpholinooxazolo[4,5-b]pyridin-6-yl)pyrazolo[1,5-a]pyrimidine-3-carboxamide] | 55% | 96% | – | –
22 | O=C(Nc1cc2sc(N3CCOCC3)nc2nc1C1CC1)c1cnn2ccc(N3CCC(O)CC3)nc12 [Example 101, N-(5-cyclopropyl-2-morpholinothiazolo[4,5-b]pyridin-6-yl)-5-(4-hydroxypiperidin-1-yl)pyrazolo[1,5-a]pyrimidine-3-carboxamide] | 96% | 98% | – | –
23 | NCC(=O)N[C@H]1CCN(c2cccc(C(=O)Nc3cc4sc(N5CCOCC5)nc4nc3N3CCCCC3)n2)C1 [Example 27, (S)-6-(3-(2-aminoacetamido)pyrrolidin-1-yl)-N-(2-morpholino-5-(piperidin-1-yl)thiazolo[4,5-b]pyridin-6-yl)picolinamide] | 95% | 97% | – | –
24 | Cl.O=C(Nc1cc2sc(N3CCOCC3)nc2nc1C1CC1)c1cnn2cccnc12 [Example 106, N-(5-cyclopropyl-2-morpholinothiazolo[4,5-b]pyridin-6-yl)pyrazolo[1,5-a]pyrimidine-3-carboxamide hydrochloride] | – | – | 93% | 97%
